Measured values as given in US20250312258A1, “2,3-PYRROLIDINEDIONE CONJUGATES AND METHODS OF USING THEREOF” (North Carolina State University, priority 2022, published 2025).
Read-outs that look alike come from different tables or passages of the source.

Columns and labels:
[1] = tested on: S. aureus 25923; assay: Broth microdilution MIC, S. aureus 25923; assay type: cell-based, Staphylococcus aureus; details: Staphylococcus aureus, 25923, read-out: MIC (S. aureus 25923)
[2] = tested on: S. aureus 29213; assay: Broth microdilution MIC, S. aureus 29213; assay type: cell-based, Staphylococcus aureus
[3] = tested on: MRSA 33591; assay: Broth microdilution MIC, MRSA 33591; assay type: cell-based; details: Staphylococcus aureus, read-out: MIC (MRSA 33591)
[4] = tested on: VRSA; assay: MIC against VRSA (Table 2); assay type: cell-based; details: Staphylococcus aureus, read-out: MIC (VRSA)
[5] = tested on: VRSA; assay: MIC against VRSA strain panel (VRS/NRS strains); assay type: cell-based; details: Staphylococcus aureus
[6] = tested on: VRE; assay: MIC / in vitro activity against VRE strain panel; assay type: cell-based, Enterococcus spp.
[7] = tested on: MRSA; assay: MIC against MRSA strain panel; assay type: cell-based; details: Staphylococcus aureus, the 4th table
[8] = tested on: MSSA; assay: MIC against MSSA strain panel; assay type: cell-based; details: Staphylococcus aureus, the 4th table

Measured: MIC

CN[C@H](CC(C)C)C(=O)N[C@H]1C(=O)N[C@@H](CC(N)=O)C(=O)N[C@H]2C(=O)N[C@H]3C(=O)N[C@H](C(=O)N[C@H](C(=O)O)c4cc(O)cc(O)c4-c4cc3ccc4O)[C@H](O)c3ccc(c(Cl)c3)Oc3cc2cc(c3O[C@@H]2O[C@H](CO)[C@@H](O)[C@H](O)[C@H]2O[C@H]2C[C@](C)(N)[C@H](O)[C@H](C)O2)Oc2ccc(cc2Cl)[C@H]1O [Vancomycin, vancomycin, reference compound]
0.5 mg/L: [2]; Staphylococcus aureus, ATCC 29213 / MRSA | [7]; 6220 MRSA | [7]; 6231 MRSA | [8]; VGP16-94 MSSA | [8]; VGP16-95 MSSA | [8]; VGP16-96 MSSA | [8]; VGP16-97 MSSA | [8]; VGP16-98 MSSA | [8]; VGP16-100 MSSA
8 mg/L: [5]; NRS 1 / VRSA, NRS-1 (VRSA), the 3rd table | [5]; NRS 1 / VRSA, NRS-1 VRSA, the 5th table
1 mg/L: [2]; Staphylococcus aureus, 29213, read-out: MIC (S. aureus 29213) | [5]; NRS 2 / VRSA, NRS-2 VRSA, the 5th table | [7]; 6215 MRSA | [7]; 6217 MRSA | [7]; 6218 MRSA | [7]; AR-978 MRSA | [7]; AR-979 MRSA | [7]; AR-993 MRSA | [7]; AR-997 MRSA | [8]; VGP16-99 MSSA
32 mg/L: [5]; VRSA, VRS-2 (VRSA), the 3rd table | [5]; VRSA, VRS-2 VRSA, the 5th table | [5]; VRSA, VRS-3a VRSA, the 5th table | [5]; VRSA, VRS-4 (VRSA), the 3rd table
>64 mg/L: [6]; 1593 (VRE), the 3rd table | [6]; 1593 VRE, the 4th table | [6]; 1751 (VRE), the 3rd table | [6]; 1751 VRE, the 6th table | [6]; 1772 VRE, the 6th table | [6]; 1946 VRE, the 6th table | [6]; 2059 VRE, the 6th table | [6]; 2431 VRE, the 6th table | [6]; 2574 VRE, the 6th table | [6]; 3053 VRE, the 6th table | [6]; 3183 (VRE), the 3rd table | [6]; 3183 VRE, the 6th table | [6]; 3190 VRE, the 6th table | [6]; 3191 VRE, the 6th table | [6]; 3222 (VRE, the 3rd table) | [6]; 3222 VRE, the 6th table | [6]; 3235 VRE, the 6th table | [6]; 3239 VRE, the 6th table | [6]; 3241 VRE, the 6th table | [6]; 3623 VRE, the 6th table
64 mg/L: [4]
2 mg/L: [1] | [3]
> 64 mg/L: [5]; VRSA, VRS-1 (VRSA), the 3rd table | [5]; VRSA, VRS-1 VRSA, the 5th table | [5]; VRSA, VRS-3b VRSA, the 5th table | [5]; VRSA, VRS-4 VRSA, the 5th table | [5]; VRSA, VRS-5 VRSA, the 5th table | [5]; VRSA, VRS-6 VRSA, the 5th table | [5]; VRSA, VRS-7 VRSA, the 5th table | [5]; VRSA, VRS-8 VRSA, the 5th table | [5]; VRSA, VRS-9 VRSA, the 5th table | [5]; VRSA, VRS-10 VRSA, the 5th table | [5]; VRSA, VRS-11a VRSA, the 5th table | [5]; VRSA, VRS-11b VRSA, the 5th table | [6]; Enterococcus, VRE
